Several values for one entry are separate records, joined by “and”; a condition that tells them apart may be missing. Equal entries are not always repeated.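 Tested at 5 concentrations; 48 h exposure; 96-well plates; endpoints linearly interpolated, else capped at highest concentration. GI50 = concentration required for 50% inhibition of growth. The concentration for full growth arrest is given as TGI.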
Assays:
Test in all cases: DTP human tumour cell line panel, 48 h
HCC-2998 colon = test system: HCC-2998 colon
UACC-257 melanoma = test system: UACC-257 melanoma
ACHN renal = test system: ACHN renal
HOP-62 NSCLC = test system: HOP-62 NSCLC
OVCAR-4 ovarian = test system: OVCAR-4 ovarian
A549 NSCLC = test system: A549 NSCLC
SK-MEL-5 melanoma = test system: SK-MEL-5 melanoma
M14 melanoma = test system: M14 melanoma
SK-MEL-2 melanoma = test system: SK-MEL-2 melanoma
SF-539 CNS = test system: SF-539 CNS

SMILES | GI50 (HCC-2998 colon) | TGI (HCC-2998 colon) | GI50 (UACC-257 melanoma) | TGI (UACC-257 melanoma) | GI50 (ACHN renal) | TGI (ACHN renal) | GI50 (HOP-62 NSCLC) | TGI (HOP-62 NSCLC) | GI50 (OVCAR-4 ovarian) | TGI (OVCAR-4 ovarian) | GI50 (A549 NSCLC) | TGI (A549 NSCLC) | GI50 (SK-MEL-5 melanoma) | TGI (SK-MEL-5 melanoma) | GI50 (M14 melanoma) | TGI (M14 melanoma) | GI50 (SK-MEL-2 melanoma) | TGI (SK-MEL-2 melanoma) | GI50 (SF-539 CNS) | TGI (SF-539 CNS)
COc1cc(C2CC(=O)Nc3c2ccc2ccccc32)cc(Br)c1OC (configuration not stated) | 0.84 µM | > 29.9 µM | 0.504 µM | 68.1 µM | 0.798 µM | > 100 µM | 0.753 µM | > 100 µM | 3.64 µM | > 100 µM | 0.549 µM | > 49.7 µM | 0.414 µM | 9.93 µM | 0.308 µM | 2.7 µM | 0.695 µM | > 100 µM | 0.583 µM | 15.1 µM
CCOC(=O)C(C(=O)OCC)C(=O)c1ccccc1C(=O)c1ccccc1 |  | > 100 µM |  | > 100 µM |  | > 100 µM |  | > 100 µM |  | > 100 µM |  | > 100 µM |  | > 100 µM |  | > 100 µM |  | > 100 µM |  | > 100 µM
COc1ccc(-c2ccc(-c3ccc(C(=N)N)cn3)o2)cc1Cl | 1.88 µM | 3.38 µM | 2.35 µM | 4.85 µM | 1.69 µM | 3.1 µM | 3.68 µM | 14.4 µM | 2.58 µM | 7.75 µM | 2.59 µM | 6.56 µM | 1.6 µM | 2.97 µM | 1.67 µM | 3.19 µM | 2.12 µM | 3.81 µM | 1.68 µM | 3.14 µM
CCOC(=O)C1=C(Nc2ccc(Br)cc2)OC/C1=N\NC(=O)c1ccccc1O |  | > 100 µM |  | > 95.3 µM |  | > 100 µM |  | > 65.1 µM |  | > 100 µM |  | > 100 µM |  | > 100 µM |  | > 100 µM |  | > 100 µM |  | > 77.6 µM
CCCCn1c2ccccc2c2ccc3c(c21)C(=O)C=CC3=O |  | > 100 µM |  | > 100 µM |  | > 100 µM |  | > 100 µM |  | > 100 µM |  | > 100 µM |  | > 100 µM |  | > 100 µM |  | > 100 µM |  | > 100 µM
O=c1cccccc1[O-].O=c1cccccc1[O-].O=c1cccccc1[O-].[Ce+3] |  | > 100 µM |  | 96.9 µM |  | 96.3 µM | 17.4 µM | 45.3 µM |  | 76.7 µM |  | > 100 µM |  | 38.8 µM |  | > 100 µM |  | 51.6 µM | 14.8 µM | 58.8 µM
CCOc1nccc2c1nc(-c1nonc1N)n2CC | > 25 µM | > 25 µM | > 25 µM | > 25 µM | > 25 µM | > 25 µM | > 25 µM | > 25 µM | > 25 µM | > 25 µM | > 25 µM | > 25 µM | > 25 µM | > 25 µM | > 25 µM | > 25 µM | > 25 µM | > 25 µM | > 25 µM | > 25 µM
CSc1ccc(SC2c3ccc(C)cc3Oc3nc(N)c(C#N)c(N)c32)cc1 (configuration not stated) | 1.78 µM | 3.28 µM | 1.81 µM | 3.24 µM | 1.61 µM | 2.96 µM | 1.73 µM | 3.22 µM | 1.59 µM | 3.01 µM | 1.82 µM | 3.68 µM | 1.76 µM | 3.15 µM | 1.86 µM | 3.64 µM | 2.11 µM | 4.12 µM | 1.56 µM | 2.98 µM
NCCCN1CCN(CCCNc2nc3ccccc3c3[nH]c4ccccc4c23)CC1 | 0.0895 µM | 0.758 µM | 2.51 µM | 5.72 µM | 0.378 µM | 3.75 µM | 0.26 µM | 1.08 µM | 0.414 µM | 1.77 µM | 0.323 µM | 2.37 µM | 1.14 µM | 2.53 µM | 1.27 µM | 2.76 µM | 0.567 µM | 1.1 µM | 0.438 µM | 1.5 µM
CC(C)C[C@H](NC(=O)[C@@H](NC(=O)c1cccc(-c2ccccc2)n1)[C@@H](C)O)B(O)O | 0.00517 µM and 0.0116 µM | 0.0171 µM and 0.0189 µM | 0.00502 µM | 0.0319 µM and 0.0213 µM | 0.00408 µM | > 11.1 µM | 0.0106 µM and < 0.0106 µM | 0.0358 µM and 0.0391 µM | 0.0124 µM and 0.0185 µM | 79 µM | 0.0173 µM and 0.0188 µM | 8.58 µM | 0.00421 µM | 0.0177 µM and < 0.0114 µM |  | 0.0207 µM | 0.00387 µM | 0.0187 µM and < 0.0195 µM | 0.00264 µM | 0.00684 µM and < 0.0114 µM
Cn1c(=O)c(C(=O)NC(=O)NCCCCCOC(=O)CCCCCCCCCCC(=O)OCCCCCNC(=O)NC(=O)c2cn(Cc3ccccc3)c(=O)n(C)c2=O)cn(Cc2ccccc2)c1=O |  | > 100 µM |  | > 100 µM |  | > 100 µM |  | > 100 µM |  | > 100 µM |  | > 100 µM |  | > 100 µM |  | > 100 µM |  | > 100 µM |  | > 100 µM
Cc1cc(C)c(S(=O)(=O)N(CCc2cccc(Br)c2)Cc2ccc(-c3cccc(S(C)(=O)=O)c3)cc2)c(C)c1 | > 100 µM | > 100 µM |  |  | > 100 µM | > 100 µM | > 100 µM | > 100 µM | > 100 µM | > 100 µM | > 100 µM | > 100 µM | > 100 µM | > 100 µM | > 100 µM | > 100 µM | > 100 µM | > 100 µM | > 100 µM | > 100 µM
COc1cccc(N=N/C(=N\NC(=O)c2cc(Br)ccc2O)c2ccc(N(CCC#N)CCC#N)cc2OC)c1 | 21.3 µg/mL | 73.2 µg/mL | 87.8 µg/mL | > 150 µg/mL | 56.8 µg/mL | > 150 µg/mL |  |  | 17.5 µg/mL | 60.9 µg/mL | 49.3 µg/mL | > 150 µg/mL | 35.1 µg/mL | 97.1 µg/mL | 57.3 µg/mL | > 150 µg/mL | 47.9 µg/mL | > 150 µg/mL | 42.7 µg/mL | > 150 µg/mL
N#Cc1ccc(Oc2cccc(Oc3ccccc3)c2)cc1C#N | > 100 µM | > 100 µM |  |  |  | > 100 µM | > 100 µM | > 100 µM |  | > 100 µM |  | > 100 µM |  | > 100 µM | > 100 µM | > 100 µM |  | > 100 µM |  | > 100 µM
Nc1c(C(=O)N/N=C/c2ccc(-c3cc(Cl)c(Cl)cc3Cl)o2)cnn1-c1ccnc2c(C(F)(F)F)cccc12 | 3.64 µM | > 100 µM |  |  | 3.55 µM | > 100 µM | 5.24 µM | > 100 µM | 2.6 µM | 9.4 µM | 4.3 µM | > 100 µM | 3.74 µM | 14.6 µM | 5.28 µM | > 100 µM | 5.31 µM | 34.3 µM | 5.48 µM | 38.7 µM

Source: PubChem BioAssay (NCI)
